According to patent publication US6566047B1, “Method for identifying neurite-growth promoting agents” (The Regents of the University of Colorado, priority 1998, dated 2003):

Test system: cPLA2
Assay: cPLA2 activity in PC-3M-MM2 cells
Format: biochemical, human
Method: PLA2 stimulation. Using ^14C-AA-PE, -PC or -PI as a substrate, thrombin, SemaIV and netrin activation of the enzyme are measured. For these assays, commercially available thrombin or thrombin-receptor-activating peptide (TRAP) (Sigma, St. Louis, Mo.), recombinant SemaIV provided to us by Dr. H. Drabkin, University of Colorado School of Medicine, recombinant SemaIII provided by Dr. Y. Luo, Exelixis Pharmaceuticals, San Francisco Calif., and recombinant netrin from Dr. M. Tessier-Lavigne, (University of California, San Francisco) are used. Time courses and dose-response curves are generated with the appropriate substrate(s). These assays are carried out according to well-established protocols described in Negre-Aminou et al., 1996, supra, incorporated herein by reference, on cells grown to equal density levels (as determined by protein and DNA content). Some enzyme assays are carried out in the presence of reducing agent, which blocks secreted but not cytosolic PLA2 activity, to exclude potential interference by secreted PLA2. To characterize the stimulated cPLA2 further, cultured cells are homogenized in protease inhibitor-containing buffer, in the presence of 1 mM EDTA or 0.3 mM Ca^2+, and then centrifuged in order to generate crude membrane fractions and cytosolic extracts. […] In separate experiments, enzyme activity is measured in the presence of different concentrations of free calcium to determine whether the enzyme activity is calcium-dependent or not

thrombin: potent growth cone repellent; commercially available thrombin (Sigma); rat thrombin in Boyden assays
stimulation of AA release from PC: about 4 fold | stimulation of AA release from PE: about 4 fold | stimulation of PI hydrolysis: not further stimulated by thrombin
